This passage reports Activity results from ChEMBL document CHEMBL3856258, “Phosphonate-based irreversible inhibitors of human γ-glutamyl transpeptidase (GGT). GGsTop is a non-toxic and highly selective inhibitor with critical electrostatic interaction with an active-site residue Lys562 for enhanced inhibitory activity” (Bioorg Med Chem, 2016).

The subject of the series is Salmonella typhimurium. As to the kind of experiment: Genotoxicity in Salmonella typhimurium TA100 assessed as number of revertant colonies per plate at 20.6 ug/plate after 20 mins in absence of S9 fraction by Ames test (reference value: 123). Particulars: salmonella enterica subsp. enterica serovar typhimurium. Format: toxicity, organism-based. For orientation: In the Ames test, an excess of revertant colonies over the control signals mutagenicity.

Regarding `COP(=O)(CCC(N)C(=O)O)Oc1cccc(CC(=O)O)c1` (stereo unspecified), the Activity came to 120.
